# Read-outs that look alike come from different tables or passages of the source.
# Legend:
# [1] = system: PC3 cells; test: MTS cell proliferation assay, PC3; type: cell-based, human; conditions: PC3, 72 h; docetaxel 0-100 nM; desmopressin 1 nM-1 μM; combination desmopressin (1 nM, 1 μM) and 5 nM docetaxel
# Experimental: PC3 human prostate carcinoma cells were obtained from the American Type Culture Collection (Rockville, Md., USA). Cells were cultured in DMEM/F12 medium (Invitrogen, ON, Canada) with 10% fetal bovine serum (FBS; Gibco, NY, USA), 100 IU/ml penicillin, 100 μg/ml streptomycin and 0.3 mg/ml 1-glutamine, and maintained at 37° C. in a humidified atmosphere of 5% CO2 in air. Cells were grown to 80% confluence in 10-cm tissue culture plates.
# Cell proliferation was determined by MTS assay as previously described.^14 Cells (5×10^3/well) were plated using 96 well plates. After cultivation for 24 h, a range of concentration of desmopressin (100 pM-1 μM) and/or Docetaxel (1 nM-100 nM) were added and culture continued for up to 72 h. Cell viability was assessed by incubation with MTS for 2 hours and resulting absorbance measured at 595 nm using an ELISA plate reader. In the combination studies, varying dose of each agents were tested. The experiments were repeated 3 times in triplicates and statistical analysis performed.
# [2] = system: PC3 cells; test: Transwell cell migration assay, PC3; type: cell-based, human; conditions: PC3, 24 h; desmopressin 1 nM and 1 μM; 5 nM docetaxel in combination
# Experimental: (§1) The migration of cells was measured using transwell insert plates (BD Biosciences, Bedford Mass.) according to the manufacture's protocol. Cells were subjected to 24 h of serum deprivation in DMEM/F12 supplemented with FBS. PC3 (5×10^4) cells were plated onto filters in 8.0-μm transwell insert plates and treated with these compounds, desmopressin (1 nM, 1 μM) and 5 nM docetaxel, in serum-free medium. The lower chamber also contained 10% FBS. Cells were allowed to migrate for 24 h. After the treatment, cells remaining on the top surfaces of the filter were removed using cotton swabs. The migrated cells that are attached to the lower surface of the filter were fixed in 4% formaldehyde at room temperature for 30 min, and then stained with crystal violet for 20 min. The migrated cells from random fields were chosen and counted using the computer-based microscopy imaging system. For the invasion assay, the same procedures were performed as described in the migration assay, except that the cells were plated onto 24-well matrigel-coated transwell plates (BD Biosciences, Bedford Mass.). The experiments were repeated 2 times in duplicates and statistical analysis performed.
# [3] = system: PC3 cells; test: Matrigel invasion assay, PC3; type: cell-based, human; conditions: 5 nM docetaxel, desmopressin 1 nM and 1 uM
# Experimental: as §1
# [4] = system: cyclin A, cyclin B, CDK2, CDK4, p21(waf1/cip1), p27(kip1), Bax, Bcl-2, PARP, Caspase 3 in PC3 cells; test: Western blot of cell cycle and apoptosis proteins, PC3; type: cell-based, human
# Experimental: (§2) Protein lysates from the desmopressin monotherapy dose response study (100 pM-1 uM), desmopressin monotherapy time point study (1 uM, 0-48 h) and combination study and concentrated media employed for Western blot analysis, were prepared as previously described.^14 The proteins were subjected to 10-12% SDS-PAGE and electrophoretically transferred onto a PVDF membrane at 100V/300 mA overnight using a semidry transfer apparatus (Bio-Rad Laboratories, Hercules, Calif.). After activation in methanol (100%), blots were incubated for 60 mins at room temperature in TBST containing 5% skimmed milk. After washing, the membranes were incubated with primary antibodies against Bax, bcl-2, p21 (waf1/cip1), p27 (kip1), cdk2, cdk4, uPA, uPAR, MMP-2 and MMP-9 (1:100-200, Santacruz Biotechnology, Santacruz, Calif., USA). After incubation with respective primary antibody, the membrane was washed with TBST 3 times for 5 min, then incubated with appropriate secondary antibody for 1 h at room temperature and washed with TBST 3 times for 5 min. Protein detection was performed with enhanced chemiluminescence Western blotting regents (Amersham Pharmacia Biotech, Buckinghamshire, UK).
# [5] = system: PC3 cells; test: Flow cytometry cell cycle analysis (BrdU labeling), PC3; type: cell-based, human
# Experimental: To analyze cell cycle profiles, cells were plated at a density of 1×10^6 per 10 cm dish. Asynchronously growing cells were pulse labeled with […] bromodeoxyuridine (BrdU) for 2 h with or without prior treatment of the antioxidants at the end of 24 h. Cells were then harvested, fixed with 70% ethanol, treated with 0.1% HCl and heated for 10 min at 90° C. to expose the labeled DNA. Cells were stained with anti-BrdU-conjugated FITC (Becton-Dickinson) and counterstained with propidium iodide, and then allowed to incubate for 30 mins on ice. Samples were filtered through a nylon mesh. Cell cycle analysis was carried out on the FACS Calibur flow cytometer using the Cell Quest Pro software package (Becton-Dickinson, CA, USA). The experiments were repeated 3 times in triplicates and statistical analysis performed as mentioned below.
# [6] = system: pro-uPA, active uPA, uPAR, MMP-2 and MMP-9 in PC3 cells; test: Western blot of uPA-MMP pathway, PC3; type: cell-based, human
# Experimental: as §2
# [7] = system: PC3 cells; conditions: for body weight: during each study
# Experimental: The mice were housed and maintained in laminar flow cabinets under specific pathogen-free conditions in facilities approved by the University of Toronto Animal Research Ethics Board and in accordance with their regulations and standards by the Canadian Council on Animal Care (CCAC). Cells (1×10^6 PC3 cells with 100 μl martrigel solution (BD Biosciences, CA, USA)) were inoculated subcutaneously (sc) into 6-8 week-old male nude mice (Harlan Sprague Dawley, Inc.). After 14 days, the developing tumors were measured and mice randomly assigned to different treatment groups. Tumor volumes were determined by measurement of tumor length (L) and width (W) with a caliper and calculated according to the formula: V=(L×W^2)(π/6) twice a week. A tumor volume in the range of 100 mm^3 was required for a given mouse to be included. Using the xenograft model, tumor growth was determined for the control and each treatment mice. Mice were randomized into four groups; control (n=15), desmopressin alone (n=15), docetaxel alone (n=10) and desmopressin in combination with docetaxel (n=10). Control animals received only the saline vehicle. Desmopressin from Ferring Pharmaceuticals (Ferring Inc, CA, USA) was administrated in 2 doses, 0 h and 24 h. Mice received desmopressin intravenously in the saline at a final dose of 2 μg/ml/body weight (50 ng/0.3 ml saline dose). Mice were administrated docetaxel at a dose of 5 mg/kg intravenously as 3 weekly cycles. Desmopressin was administrated in 2 doses, 30 min prior to and 24 h after the administration of docetaxel. The animals that were administrated docetaxel or desmopressin in combination with docetaxel were sacrificed 35 days after cell inoculation. Control and desmopressin mice were monitored until tumor volume was approximately 1500 mm3 or day 49, whichever earlier, in order to evaluate antitumor effect of desmopressin in vivo study.
# All experiments were performed in triplicates. The date represented mean±the standard error of the mean. Statistical analysis was done by Student's t test at a significance level of P<0.05. Analyses of the in vivo results were performed using either Student's t-testing or repeated measures one-way ANOVA techniques.
# [8] = system: DU145 cells; test: Wound healing assay, DU145; type: cell-based; conditions: for effect on migration (wound closure) compared to control: 10 nM DTX alone, Desmopressin alone
# Experimental: The motility inhibitory potential of desmopressin alone and/or in combination with docetaxel was accessed by wound healing assay according to previously described protocol^49, 50. DU145 cell were plated on 24-well plates at a concentration of 50,000 cells per well and were allowed to grow until they reached 90-100% confluence. After incubating the cells with 1 mg/L Mitomycin C (Sigma©) for 1 hour, a vertical scratch across each well was created; floating cells removed and cell media or media with treatment solutions were added. Images were obtained at zero-time point and after 24 hours of treatment. A computer-based microscopy imaging system with X200 magnification (Axiovision©) was used to measure wound healing of each well. Each experiment was carried out in duplicates and repeated three times
# [9] = system: DU145 cells; test: DU145 xenograft model in athymic nude mice; type: in vivo; conditions: day 55 post inoculation
# Experimental: 6-week old male athymic nude mice (Charles river, QC, Canada) were used to evaluate the effect of combination therapy on DU145 tumor growth in vivo. […] Following 2 weeks of housing, 1×10^6 DU145 cells per animal in 100 μL matrigel solution (BD Bioscience, CA, USA) were inoculated subcutaneously, according to procedure described by Fridman et al (51). After 14 days following inoculation, body weight and tumor size were measured, and mice were randomly assigned to different treatment groups. Groups included control (sham treatments), DTX (5 mg/kg body weight) intraperitoneally, Desmopressin (2 μg/ml/body weight) intravenously 30 minutes prior to IP injection and 24 hours later or combination therapy (n=4 per group). Each group received treatment once every other week for a total of 3 treatments. Animal weight and tumor measurements were assessed regularly. Tumor size was calculated by length (L) and width (W) measured with caliper according to the following formula: V=(L×W2) ( […] /6).
# Two weeks following the last treatment, mice were euthanized; tumors were excised, measured directly with caliper and sent for histological analysis.
# Statistics: Tumor volume calculated during the treatment period were compared using repeated measures one-way ANOVA test (SPSS©). Final tumor volume and body weight measurements were compared separately using one-way ANOVA test.
# [10] = dose response study 100 pM-1 uM
compound,measurement,setting,value
"NC(=O)CC[C@@H]1NC(=O)[C@H](Cc2ccccc2)NC(=O)[C@H](Cc2ccc(O)cc2)NC(=O)CCSSC[C@@H](C(=O)N2CCC[C@H]2C(=O)N[C@H](CCCN=C(N)N)C(=O)NCC(N)=O)NC(=O)[C@H](CC(N)=O)NC1=O [desmopressin, 1-desamino-8-D-arginine vasopressin]","cell proliferation / cell viability (MTS), relative to untreated control cells",[1],significantly reduced cell proliferation
same,"cell migration, transwell plates",[2],significantly inhibited cell migration
same,"cell invasion, matrigel invasion assay",[3],significantly inhibition of cell invasion
same,expression of (total) Caspase 3,[4],did not reduce the expression
same,expression of PARP,[4],did not reduce the expression
same,expression of bcl-2,[4],did not reduce the expression
same,cell cycle distribution,[5]; monotherapy,did not alter cell cycle distribution
same,expression of MMP-2,[6]; [10],reduced in a dose dependent manner
same,expression of MMP-9,[6]; [10],reduced in a dose dependent manner
same,expression of active uPA,[6]; [10],reduced in a dose dependent manner
same,expression of precursor pro-uPA,[6]; [10],reduced in a dose dependent manner
same,expression of uPAR,[6]; [10],unaltered
same,expression of MMP-2,"[6]; time point study, 1 μM, 0-48 h",reduced in a time dependent manner
same,expression of MMP-9,"[6]; time point study, 1 μM, 0-48 h",reduced in a time dependent manner
same,expression of uPA,"[6]; time point study, 1 μM, 0-48 h",reduced in a time dependent manner
same,expression of uPAR,"[6]; time point study, 1 μM, 0-48 h",not altered
same,mean tumor volume,"[7]; PC3 xenograft, nude mice, day 35 post tumor inoculation, desmopressin 2 μg/ml/body weight i.v.",642 mm3
same,body weight,"[7]; PC3 xenograft, nude mice",consistently maintained their body weight
same,tolerability of treatment,"[7]; PC3 xenograft, nude mice, intravenous injection",well tolerated
same,tumor growth / tumor size versus control (and docetaxel alone),"[7]; PC3 xenograft, nude mice, docetaxel 5 mg/kg i.v., desmopressin 2 μg/ml/body weight i.v.",significantly slower rate of tumor development
same,effect on migration (wound closure) compared to control,"[8]; DU145, 24 hours",no statistical significant effect
same,"average tumor size, final direct measurement of excised tumors",[9],1597±681 mm3
CC(=O)O[C@@]12CO[C@@H]1C[C@H](O)[C@@]1(C)C(=O)[C@H](O)C3=C(C)[C@@H](OC(=O)[C@H](O)[C@@H](NC(=O)OC(C)(C)C)c4ccccc4)C[C@@](O)([C@@H](OC(=O)c4ccccc4)[C@H]21)C3(C)C [docetaxel],"cell proliferation / cell viability (MTS), relative to untreated control cells",[1],decreased cell viability in a dose dependent manner
same,"cell invasion, matrigel invasion assay",[3],significantly inhibition of cell invasion
same,proportion of cells in G2 phase,"[5]; 5 nM docetaxel, alone or with 1 nM/1 μM desmopressin",significant increase in the proportion of cells in G2 phase
same,body weight,"[7]; PC3 xenograft, nude mice",consistently maintained their body weight
same,tolerability of treatment,"[7]; mouse, in vivo, iv",well tolerated
same,effect on migration (wound closure) compared to control,"[8]; DU145, 24 hours",migration inhibitory effect
same,in vitro wound closure,"[8]; DU145, 24 hours, DTX 10 nM, alone or combined with 1 μm Desmopressin",48.9%
same,cell kill in wound healing assay,"[8]; DU145, DTX concentration of 100 μM",significant cell kill
same,"average tumor size, final direct measurement of excised tumors",[9],1330±550 mm3

# Reference: patent US10500248B2, “Method for treating cancer” (SUNNYBROOK RESEARCH INSTITUTE, priority 2015, dated 2019)
